Measured values published in patent US20120022045A1, “BRIDGED COMPOUNDS AS HIV INTEGRASE INHIBITORS” (priority 2009, published 2012).
Like-named read-outs stand apart in the source and are kept apart here.

Key:
HIV-1 = test: Inhibition of acute HIV-1 infection of T-lymphoid cells (spread assay); format: cell-based; settings: 10% FBS, read-out: IC95 (nM) in the presence of 10% FBS
Experimental: Assays for the inhibition of acute HIV-1 infection of T-lymphoid cells were conducted in accordance with Vacca, J. P. et al., Proc. Natl. Acad. Sci. USA 1994, 91: 4096.

[1] = system: HIV-1 integrase mutant virus Q148R; test: Single cycle infectivity assay in HeLa P4-2 cells, integrase mutant Q148R virus; format: cell-based; settings: fold shift in IC50 versus wild type IIIB
How it was run: (§1)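 HeLa P4-2 cells used in a single-cycle acute HIV-1 infection assay. Wild-type IIIB or integrase mutant viruses made by site-directed mutagenesis of proviral plasmids and produced by transfection of 293T cells.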

[2] = system: HIV-1 integrase mutant virus N155H; test: Single cycle infectivity assay in HeLa P4-2 cells, integrase mutant N155H virus; format: cell-based; settings: fold shift in IC50 versus wild type IIIB
How it was run: as §1

[3] = system: HIV-1 integrase mutant virus G140S/Q148H; test: Single cycle infectivity assay in HeLa P4-2 cells, integrase mutant G140S/Q148H virus; format: cell-based; settings: fold shift in IC50 versus wild type IIIB
How it was run: as §1

HIV-1 wild type IIIB = test: Single cycle infectivity assay in HeLa P4-2 cells, wild type virus; format: cell-based
How it was run: as §1

[4] = system: HIV-1 integrase mutant virus Y143R; test: Single cycle infectivity assay in HeLa P4-2 cells, integrase mutant Y143R virus; format: cell-based; settings: fold shift in IC50 versus wild type IIIB
How it was run: as §1

HIV-1 integrase = target: T1, HIV-1 integrase (Human immunodeficiency virus type 1 group M subtype B, UniProt P04585); test: HIV integrase assay: strand transfer catalyzed by recombinant integrase; format: biochemical; settings: strand transfer activity
T1 construct: strand transfer activity of HIV-1 integrase
Experimental: Assays for the strand transfer activity of HIV-1 integrase were conducted in accordance with WO 02/30930 for recombinant integrase.
Further description on conducting the assay using preassembled complexes is found in Wolfe, A. L. et al., J. Virol. 1996, 70: 1424-1432, Hazuda et al., J. Virol. 1997, 71: 7005-7011; Hazuda et al., Drug Design and Discovery 1997, 15: 17-24; and Hazuda et al., Science 2000, 287: 646-650.

[5] = Human immunodeficiency virus 1, T-lymphoid
[6] = Human immunodeficiency virus 1, IIIB, HeLaP4-2, wild type IIIB

Compound	IC95 (HIV-1)	Q148R (shift) [1]	N155H (shift) [2]	G140S/Q148H (shift) [3]	IC50 (HIV-1 wild type IIIB; wild type IIIB)	Y143R (shift) [4]	IC50 (HIV-1 integrase)	IC95 (HIV-1; [5])	IC50 (HIV-1 wild type IIIB; [6])
CN(C)C(=O)C(=O)N(C)C12CCC(Cn3c1nc(C(=O)NCc1ccc(F)cc1)c(O)c3=O)OC2 (single isomer, unassigned) [Example 10A, N-(4-{[(4-fluorobenzyl)amino]carbonyl}-5-hydroxy-6-oxo-10-oxa-3,7-diazatricyclo[7.2.2.0^2,7]trideca-2,4-dien-1-yl)-N′,N′N′-trimethylethanediamide]	9.0 nM	4 fold	5 fold	26 fold	0.221 µM	1 fold	0.005 µM		
CN(C)C(=O)C(=O)N(C)C12CCC(CC1)Cn1c2nc(C(=O)NCc2ccc(F)cc2)c(O)c1=O [Example 1, N-(4-{[(4-fluorobenzyl)amino]carbonyl}-5-hydroxy-6-oxo-3,7-diazatricyclo[7.2.2.0^2,7]trideca-2,4-dien-1-yl)-N′,N′,N″-trimethylethanediamide]		2 fold	3 fold	15 fold		2 fold	0.013 µM	6.2 nM	0.0072 µM
CN1CCN(C(=O)C(=O)N(C)C23CCC(CC2)Cn2c3nc(C(=O)NCc3ccc(F)cc3)c(O)c2=O)CC1 [Example 4]		3 fold	4 fold	4 fold		1 fold	0.014 µM	39 nM	0.033 µM
CCN(C(=O)C(=O)N(C)C)C12CCC(Cn3c1nc(C(=O)NCc1ccc(F)cc1)c(O)c3=O)OC2 (single isomer, unassigned) [Example 12A, N-Ethyl-N-(4-{[(4-fluorobenzyl)amino]carbonyl}-5-hydroxy-6-oxo-10-oxa-3,7-diazatricyclo[7.2.2.0^2,7]trideca-2,4-dien-1-yl)-N′,N′-dimethylethanediamide]		7 fold	6 fold	112 fold	0.023 µM	2 fold	0.011 µM	11 nM	
CN(C)C(=O)C(=O)NC12CCC(CC1)Cn1c2nc(C(=O)NCc2ccc(F)cc2)c(O)c1=O [Example 5, N′-{2-[(4-fluorobenzyl)carbamoyl]-3-hydroxy-4-oxo-6,7,8,9-tetrahydro-7,10-ethanopyrimido[1,2-a]azepin-10(4H)-yl}-N,N-dimethylethanediamide]		1 fold	2 fold	9 fold		1 fold	0.033 µM	< 3.9 nM	0.0067 µM
CCN(C(=O)C(=O)N(C)C)C12CCC(Cn3c1nc(C(=O)NCc1ccc(F)cc1)c(O)c3=O)OC2 (single isomer, unassigned) [Example 12B, N-Ethyl-N-(4-{[(4-fluorobenzyl)amino]carbonyl}-5-hydroxy-6-oxo-10-oxa-3,7-diazatricyclo[7.2.2.0^2,7]trideca-2,4-dien-1-yl)-N′,N′-dimethylethanediamide]	19 nM	32 fold	56 fold	240 fold	0.007 µM	7 fold	0.018 µM		
N-5-{[(4-fluorolbenzyl)amino]carbonyl}-4-hydroxy-3-oxo-2,6-diazatricyclo[6.3.2.0^2,7]trideca-4,6-dien-8-yl)-N,N′,N′-trimethylethanediamide [Example 24B]	7.4 nM	1 fold	3 fold	6 fold	0.007 µM	2 fold	0.024 µM		
CC1C2CCC(N(C)C(=O)C(=O)N(C)C)(CC2)c2nc(C(=O)NCc3ccc(F)cc3)c(O)c(=O)n21 (single isomer, unassigned) [Example 13A, N-(4-{[(4-fluorobenzyl)amino]carbonyl}-5-hydroxy-8-methyl-6-oxo-3,7-diazatricyclo[7.2.2.0^2,7]trideca-2,4-dien-1-yl)-N′,N′,N″-trimethylethanediamide]	8.6 nM	1 fold	2 fold	2 fold		2 fold	0.013 µM		0.007 µM
Cc1cc(CNC(=O)c2nc3n(c(=O)c2O)CC2CCC3(N(C)C(=O)C(=O)N(C)C)CO2)ccc1F (single isomer, unassigned) [Example 11A]	17 nM	8 fold	10 fold	>79 fold	0.021 µM	2 fold	0.037 µM		
CN(C)C(=O)C(=O)N(C)C12CCC(Cn3c1nc(C(=O)NCc1ccc(F)cc1)c(O)c3=O)OC2 (single isomer, unassigned) [Example 10B, N-(4-{[(4-Fluorobenzyl)amino]carbonyl}-5-hydroxy-6-oxo-10-oxa-3,7-diazatricyclo[7.2.2.0^2,7]trideca-2,4-dien-1-yl)-N′,N′,N′-trimethylethanediamide]	15 nM	22 fold	18 fold	12 fold	0.03 µM	6 fold	0.014 µM		
O=C(NC12CCC(CC1)Cn1c2nc(C(=O)NCc2ccc(F)cc2)c(O)c1=O)C(=O)N1CCOCC1 [Example 6, N-(4-Fluorobenzyl)-3-hydroxy-10-{[morpholin-4-yl(oxo)acetyl]amino}-4-oxo-4,6,7,8,9,10-hexahydro-7,10-ethanopyrimido[1,2-a]azepine-2-carboxamide]		2 fold	2 fold	5 fold		1 fold	0.037 µM	5.3 nM	0.009 µM
CN(C(=O)C(=O)N1CCOCC1)C12CCC(CC1)Cn1c2nc(C(=O)NCc2ccc(F)cc2)c(O)c1=O [Example 3, N-(4-fluorobenzyl)-5-hydroxy-1-{methyl[morpholin-4-yl(oxo)acetyl]amino}-6-oxo-3,7-diazatricyclo[7.2.2.0^2,7]trideca-2,4-diene-4-carboxamide]		2 fold	2 fold	9 fold		1 fold	0.032 µM	11 nM	0.031 µM
Cc1cc(CNC(=O)c2nc3n(c(=O)c2O)CC2CCC3(N(C)C(=O)C(=O)N(C)C)CO2)ccc1F (single isomer, unassigned) [Example 11B]	7.8 nM	2 fold	5 fold	14 fold	0.112 µM	1 fold	0.014 µM		
CC1C2CCC(N(C)C(=O)C(=O)N(C)C)(CC2)c2nc(C(=O)NCc3ccc(F)cc3)c(O)c(=O)n21 (single isomer, unassigned) [Example 13B, N-(4-{[(4-fluorobenzyl)amino]carbonyl}-5-hydroxy-8-methyl-6-oxo-3,7-diazatricyclo[7.2.2.0^2,7]trideca-2,4-dien-1-yl)-N′,N′,N″-trimethylethanediamide]	20 nM	57 fold	30 fold	>209 fold	0.008 µM	7 fold	0.013 µM		
Cc1cc(CNC(=O)c2nc3n(c(=O)c2O)CC2CCC3(N(C)C(=O)C(=O)N(C)C)CC2)ccc1F [Example 2, N-(4-{[(4-fluoro-3-methylbenzyl)amino]carbonyl}-5-hydroxy-6-oxo-3,7-diazatricyclo[7.2.2.0^2,7]trideca-2,4-dien-1-yl)-N,N′,N″-trimethylethanediamide]		2 fold	2 fold	5 fold		1 fold	0.015 µM	7.2 nM	0.004 µM
